ChEMBL document CHEMBL5257097, “An Isomer of Galidesivir That Potently Inhibits Influenza Viruses and Members of the Bunyavirales Order” (ACS Med Chem Lett, 2023)

Legend:
[1] = (§1) Selectivity index, ratio of CC50 for cytotoxicity against dog MDCK cells infected with Influenza A virus H3N2 assessed as reduction in cell viability by visual analysis to EC50 for antiviral activity against Influenza A virus H3N2 infected in dog MDCK cells assessed as inhibition of viral replication by visual analysis; assay type: toxicity, cell-based; conditions: read-out: Ratio CC50/EC50
[2] = as §1, with “African green monkey Vero” for “dog MDCK”, “Tacaribe” for “Influenza A”, “virus” for “virus H3N2”, “reduction in” for “inhibition of”; assay type: toxicity, cell-based; conditions: read-out: Ratio CC50/EC50
[3] = as §1, with “African green monkey Vero E6” for “dog MDCK”, “Oropouche” for “Influenza A”, “virus” for “virus H3N2”, “neutral red dye based” for “visual”, “reduction in” for “inhibition of”; assay type: toxicity, Vero C1008; conditions: read-out: Ratio CC50/EC50
La Crosse virus [4] = assay: Antiviral activity against La Crosse virus infected in African green monkey Vero E6 cells assessed as inhibition of viral replication by visual analysis; assay type: functional, organism-based; conditions: Vero C1008
[5] = as §1, with “African green monkey Vero” for “dog MDCK”, “Pichinde” for “Influenza A”, “virus” for “virus H3N2”, “neutral red dye based” for “visual”, “reduction in” for “inhibition of”; assay type: toxicity; conditions: read-out: Ratio CC50/EC50
[6] = Toxicity in BALB/c mouse infected with influenza A/Ca/04/09 (H1N1) assessed as animal survival at 10 to 300 mg/kg, ip measured every day for 6 days; assay type: organism-based; conditions: in vivo, 144 h, dose 10-300 mg/kg, time 6 day
[7] = as §1, with “African green monkey Vero 76” for “dog MDCK”, “La Crosse” for “Influenza A”, “virus” for “virus H3N2”, “reduction in” for “inhibition of”; assay type: toxicity, cell-based; conditions: read-out: Ratio CC50/EC50
[8] = (§2) Selectivity index, ratio of CC50 for cytotoxicity against African green monkey Vero 76 cells infected with MERS-CoV assessed as reduction in cell viability by neutral red dye based analysis to EC50 for antiviral activity against MERS-CoV infected in African green monkey Vero 76 cells assessed as reduction in virus-induced cytopathic effect by neutral red dye based analysis; assay type: toxicity; conditions: read-out: Ratio CC50/EC50
[9] = Cytotoxicity against African green monkey Vero E6 cells infected with Heartland virus assessed as reduction in cell viability; assay type: toxicity, cell-based, Vero C1008; conditions: chlorocebus sabaeus
[10] = Cytotoxicity against African green monkey Vero 76 cells infected with Punta Toro virus assessed as reduction in cell viability by visual analysis; assay type: toxicity, cell-based; conditions: chlorocebus sabaeus
[11] = Cytotoxicity against African green monkey Vero E6 cells infected with Oropouche virus assessed as reduction in cell viability by neutral red dye based analysis; assay type: toxicity, Vero C1008; conditions: chlorocebus sabaeus
[12] = as §2, with “Punta Toro virus” for “MERS-CoV”, “viral replication” for “virus-induced cytopathic effect”; assay type: toxicity; conditions: read-out: Ratio CC50/EC50
[13] = Cytotoxicity against dog MDCK cells infected with Influenza A virus H7N9 assessed as reduction in cell viability by visual analysis; assay type: toxicity, cell-based, Canis lupus familiaris
Punta Toro virus = assay: Antiviral activity against Punta Toro virus infected in African green monkey Vero 76 cells assessed as inhibition of viral replication by visual analysis; assay type: functional, organism-based
[14] = Cytotoxicity against African green monkey Vero cells infected with Pichinde virus assessed as reduction in cell viability by visual analysis; assay type: toxicity, cell-based; conditions: chlorocebus sabaeus
Influenza A virus [15] = assay: Antiviral activity against Influenza A virus H1N1 infected in dog MDCK cells assessed as inhibition of viral replication measured after 15 to 30 mins by neutral red dye based analysis; assay type: functional, organism-based
Pichinde virus [16] = assay: Antiviral activity against Pichinde virus infected in African green monkey Vero cells assessed as inhibition of viral replication by visual analysis; assay type: functional, organism-based
Pichinde virus [17] = assay: Antiviral activity against Pichinde virus infected in African green monkey Vero cells assessed as inhibition of viral replication by neutral red dye based analysis; assay type: functional, organism-based
[18] = as §1, with “African green monkey Vero 76” for “dog MDCK”, “Punta Toro” for “Influenza A”, “virus” for “virus H3N2”, “reduction in” for “inhibition of”; assay type: toxicity, cell-based; conditions: read-out: Ratio CC50/EC50
[19] = Cytotoxicity against African green monkey Vero E6 cells infected with JUNV assessed as reduction in cell viability by visual analysis; assay type: toxicity, cell-based, Vero C1008; conditions: chlorocebus sabaeus
[20] = as §1, with “H1N1” for “H3N2”, “neutral red dye based” for “visual”; assay type: toxicity; conditions: read-out: Ratio CC50/EC50
[21] = Toxicity in BALB/c mouse infected with A/Ca/04/09 (H1N1) assessed as animal mean day of death at 10 mg/kg, ip administered twice a day for 5 days (reference value: 9.3 +/-1.1 day ); assay type: organism-based; conditions: in vivo, 120 h, time 5 day
[22] = Cytotoxicity against African green monkey Vero 76 cells infected with La Crosse virus assessed as reduction in cell viability by visual analysis; assay type: toxicity, cell-based; conditions: chlorocebus sabaeus
La Crosse virus [23] = assay: Antiviral activity against La Crosse virus infected in African green monkey Vero E6 cells assessed as inhibition of viral replication by neutral red dye based analysis; assay type: functional, organism-based; conditions: Vero C1008
Influenza A virus [24] = assay: Antiviral activity against Influenza A virus H7N9 infected in dog MDCK cells assessed as inhibition of viral replication measured after 15 to 30 mins by neutral red dye based analysis; assay type: functional, organism-based
Influenza B virus [25] = assay: Antiviral activity against Influenza B virus infected in dog MDCK cells assessed as inhibition of viral replication measured after 15 to 30 mins by visual analysis; assay type: functional, organism-based
[26] = Cytotoxicity against African green monkey Vero 76 cells infected with La Crosse virus assessed as reduction in cell viability by neutral red dye based analysis; assay type: toxicity; conditions: chlorocebus sabaeus
[27] = Toxicity in BALB/c mouse infected with A/Ca/04/09 (H1N1) assessed as animal survival at 10 to 300 mg/kg, ip administered twice a day for 5 days; assay type: organism-based; conditions: in vivo, 120 h, dose 10-300 mg/kg, time 5 day
[28] = test system: Middle East respiratory syndrome-related coronavirus; assay: Antiviral activity against MERS-CoV infected in vervet monkey MA-104 cells assessed as reduction in virus-induced cytopathic effect measured after 15 to 30 mins by neutral red dye based assay; assay type: functional, organism-based; conditions: MA104
[29] = as §2, with “vervet” for “African green”, “MA-104” for “Vero 76”; assay type: toxicity; conditions: read-out: Ratio CC50/EC50
dengue virus type 2 = assay: Antiviral activity against DENV-2 infected in African green monkey Vero cells assessed as reduction in virus-induced cytopathic effect measured after 15 to 30 mins by visual analysis; assay type: functional, organism-based
Sudan ebolavirus = assay: Antiviral activity against SUDV infected in human HeLa cells assessed as reduction in viral cytopathic effect; assay type: functional, organism-based
[30] = as §2, with “vervet” for “African green”, “MA-104” for “Vero 76”, “visual” for “neutral red dye based”; assay type: toxicity, cell-based; conditions: read-out: Ratio CC50/EC50
Ebolavirus = assay: Antiviral activity against Ebola virus infected in human HeLa cells assessed as reduction in viral cytopathic effect; assay type: functional, organism-based; conditions: Orthoebolavirus
[31] = test system: Middle East respiratory syndrome-related coronavirus; assay: Antiviral activity against MERS-CoV infected in vervet monkey MA-104 cells assessed as reduction in virus-induced cytopathic effect measured after 15 to 30 mins by visual analysis; assay type: functional, organism-based; conditions: MA104
[32] = Cytotoxicity against vervet monkey MA-104 cells infected with MERS-CoV assessed as reduction in cell viability by visual assay; assay type: toxicity, cell-based; conditions: cercopithecus pygerythrus
Influenza B virus [33] = assay: Antiviral activity against Influenza B virus infected in dog MDCK cells assessed as reduction in viral cytopathic effect; assay type: functional, organism-based
[34] = Selectivity index, ratio of CC50 for cytotoxicity against African green monkey Vero cells infected with DENV-2 assessed as reduction in cell viability by neutral red analysis to EC50 for antiviral activity against DENV-2 infected in human Huh-7 cells assessed as reduction in virus-induced cytopathic effect by neutral red analysis; assay type: toxicity, cell-based; conditions: read-out: Ratio CC50/EC50
[35] = Cytotoxicity against African green monkey Vero cells infected with DENV-2 assessed as reduction in cell viability by visual assay; assay type: toxicity, cell-based; conditions: chlorocebus sabaeus

Nc1ncnn2c([C@@H]3N[C@H](CO)[C@@H](O)[C@H]3O)ccc12
selectivity ratio [1]: 38
selectivity ratio [2]: 32
selectivity ratio [3]: 75
EC50 (La Crosse virus [4]): < 0.1 µM
selectivity ratio [5]: 28
Activity [6]: Non-Toxic
selectivity ratio [7]: > 240
selectivity ratio [8]: 15
CC50 [9]: 13 µM
CC50 [10]: 13 µM
CC50 [11]: 15 µM
selectivity ratio [12]: 37
CC50 [13]: 32 µM
EC50 (Punta Toro virus): 0.32 µM
CC50 [14]: 16 µM
EC50 (Influenza A virus [15]): 0.32 µM
EC50 (Pichinde virus [16]): 0.38 µM
EC50 (Pichinde virus [17]): 0.3 µM
selectivity ratio [18]: 41
CC50 [19]: 12 µM
selectivity ratio [20]: 44
Time [21]: 12 days
CC50 [22]: 24 µM
EC50 (La Crosse virus [23]): < 0.1 µM
EC50 (Influenza A virus [24]): 0.39 µM
EC50 (Influenza B virus [25]): 0.32 µM
CC50 [26]: 24 µM
Activity [27]: Non-Toxic

Nc1ncnc2c([C@@H]3N[C@H](CO)[C@@H](O)[C@H]3O)c[nH]c12 [GALIDESIVIR]
EC50 [28]: 36 µM
selectivity ratio [29]: > 3.1
EC50 (dengue virus type 2): 4.2 µM
EC50 (Sudan ebolavirus): 3 µM
selectivity ratio [30]: > 2.8
EC50 (Ebolavirus): 3 µM
EC50 [31]: 32 µM
CC50 [32]: > 100 µM
EC50 (Influenza B virus [33]): 1 µM
selectivity ratio [34]: > 6.7
CC50 [35]: > 100 µM
